Assays:
[1] = target: T1, Avi-KRAS G12D (1-169) GppNHp/RAF1 RBD-3xFLAG (52-151) (Homo sapiens, UniProt P01116, G12D); assay: Raf1-KRAS G12D-GppNHP disruption HTRF assay (Biological Example 1); type: binding; settings: KRAS G12D, GppNHp-loaded; class symbols
T1 construct: Avi-KRAS G12D (1-169)
Procedure, shortened: (§1)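 Compound disruption of KRAS-GppNHp/RAF1 RBD binding read by HTRF after two sequential 1 h room-temperature incubations (protein mix, then detection reagents), shaken at 700 rpm. Buffer Tris pH 7.5 with MgCl2, BSA, Tween and 10% DMSO; results given as percent activity relative to DMSO (100%).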

[2] = target: T2, Avi-KRAS G12R (1-169) GppNHp/RAF1 RBD-3xFLAG (52-151) (Homo sapiens, UniProt P01116, G12R); assay: Raf1-KRAS G12R-GppNHP disruption HTRF assay (Biological Example 1); type: binding; settings: KRAS G12R, GppNHp-loaded; class symbols
T2 construct: Avi-KRAS G12R (1-169)
Procedure, shortened: as §1

[3] = target: T3, Avi-KRAS G12V (1-169) GppNHp/RAF1 RBD-3xFLAG (52-151) (Homo sapiens, UniProt P01116, G12V); assay: Raf1-KRAS G12V-GppNHP disruption HTRF assay (Biological Example 1); type: binding; settings: KRAS G12V, GppNHp-loaded; class symbols
T3 construct: Avi-KRAS G12V (1-169)
Procedure, shortened: as §1

[4] = target: T4, Avi-KRAS WT (1-169) GppNHp/RAF1 RBD-3xFLAG (52-151) (Homo sapiens, UniProt P01116); assay: Raf1-KRAS WT-GppNHP disruption HTRF assay (Biological Example 1); type: binding; settings: KRAS WT, GppNHp-loaded; class symbols
T4 construct: Avi-KRAS WT (1-169)
Procedure, shortened: as §1

[5] = test system: GP2d cells (KRAS G12D); assay: Cell-based pERK HTRF assay in GP2d cell (Biological Example 2); settings: GP2d, GP2d (KRAS G12D) cells, pERK HTRF; class symbols
Procedure, shortened: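 Cells grown in DMEM with 10% FBS were exposed to compound for 60 min at 0.25% DMSO, using a 9-point half-log series starting at 1 μM or 100 nM. Lysates were then mixed with d2 and Eu cryptate antibodies for 4–24 h at room temperature, and pERK was read by HTRF.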

[6] = test system: SW620 cells (KRAS G12V); assay: Cell-based pERK HTRF assay in SW620 cell (Biological Example 4); settings: Homo sapiens, SW-620, SW620 (KRAS G12V) cells, pERK HTRF; class symbols
Procedure, shortened: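 SW620 seeded in RPMI/10% FBS, next day dosed 4 h (top 1 μM, half-log, 9 pts, 0.25% DMSO). Lysed, pERK by d2/Eu cryptate HTRF, 4–24 h RT, 615 nm read.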

T3 sequence (P01116 1-169 isoform P01116-2 G12V): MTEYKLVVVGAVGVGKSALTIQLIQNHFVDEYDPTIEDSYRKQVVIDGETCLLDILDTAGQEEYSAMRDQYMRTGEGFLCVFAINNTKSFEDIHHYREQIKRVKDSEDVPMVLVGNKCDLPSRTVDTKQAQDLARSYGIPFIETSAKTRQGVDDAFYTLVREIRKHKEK
T1 sequence (P01116 1-169 isoform P01116-2 G12D): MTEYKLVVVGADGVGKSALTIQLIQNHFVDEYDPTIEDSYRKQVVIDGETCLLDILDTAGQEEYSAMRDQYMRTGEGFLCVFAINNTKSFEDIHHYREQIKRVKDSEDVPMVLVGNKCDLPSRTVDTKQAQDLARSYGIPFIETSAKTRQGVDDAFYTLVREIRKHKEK
T4 sequence (P01116 1-169 isoform P01116-2): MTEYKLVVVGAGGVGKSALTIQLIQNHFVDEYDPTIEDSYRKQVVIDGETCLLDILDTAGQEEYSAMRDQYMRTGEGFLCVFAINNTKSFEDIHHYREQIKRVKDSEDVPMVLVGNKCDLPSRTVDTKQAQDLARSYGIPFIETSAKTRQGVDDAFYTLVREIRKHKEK
T2 sequence (P01116 1-169 isoform P01116-2 G12R): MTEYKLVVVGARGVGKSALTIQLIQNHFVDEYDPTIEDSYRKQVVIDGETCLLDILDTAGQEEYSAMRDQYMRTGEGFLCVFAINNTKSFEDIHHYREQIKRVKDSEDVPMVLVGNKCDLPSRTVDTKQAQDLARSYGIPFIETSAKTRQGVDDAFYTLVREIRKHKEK

| SMILES | IC50 [1] | IC50 [2] | IC50 [3] | IC50 [4] | IC50 [5] | IC50 [6] |
| --- | --- | --- | --- | --- | --- | --- |
| CCN(c1nc(OC[C@@]23CCCN2C[C@H](F)C3)nc2c(F)c(-c3ccc(F)c4sc(N)c(C#N)c34)c(C(F)(F)F)cc12)[C@H]1CCN(C(=O)OCC2COC2)C1 (atropisomer, axis not shown) [Compound 639] | < 100 nM | < 100 nM | < 100 nM | < 100 nM | < 100 nM | < 100 nM |
| CCN(c1nc(OC[C@@]23CCCN2C[C@H](F)C3)nc2c(F)c(-c3ccc(F)c4sc(N)c(C#N)c34)c(C(F)(F)F)cc12)[C@H]1CCN(C(=O)OCC2CN(C(C)=O)C2)C1 (atropisomer, axis not shown) [Compound 640] | < 100 nM | < 100 nM | < 100 nM | < 100 nM | < 100 nM | < 100 nM |
| CC(=O)N1CC[C@H]2[C@@H]1CN2c1nc(OC[C@@]23CCCN2C[C@H](F)C3)nc2c(F)c(-c3ccc(F)c4sc(N)c(C#N)c34)c(C(F)(F)F)cc12 (atropisomer, axis not shown) [Compound 641] | 1000 to 10000 nM | 1000 to 10000 nM | 1000 to 10000 nM | 100 to 1000 nM | < 100 nM | < 100 nM |
| CCC(=O)N1CC[C@H]2[C@@H]1CN2c1nc(OC[C@@]23CCCN2C[C@H](F)C3)nc2c(F)c(-c3ccc(F)c4sc(N)c(C#N)c34)c(C(F)(F)F)cc12 (atropisomer, axis not shown) [Compound 642] | 1000 to 10000 nM | 1000 to 10000 nM | 1000 to 10000 nM | 1000 to 10000 nM | < 100 nM | 100 to 1000 nM |
| N#Cc1c(N)sc2c(F)ccc(-c3c(C(F)(F)F)cc4c(N5C[C@H]6[C@@H]5CCN6C(=O)C5CC5)nc(OC[C@@]56CCCN5C[C@H](F)C6)nc4c3F)c12 (atropisomer, axis not shown) [Compound 643] | 1000 to 10000 nM | 1000 to 10000 nM | 1000 to 10000 nM | 1000 to 10000 nM | 100 to 1000 nM | 100 to 1000 nM |
| CCN(c1nc(OC[C@@]23CCCN2C[C@H](F)C3)nc2c(F)c(-c3ccc(F)c4sc(N)c(C#N)c34)c(C(F)(F)F)cc12)[C@H]1C[C@H](COC)N(C(C)=O)C1 (atropisomer, axis not shown) [Compound 647] | < 100 nM | 100 to 1000 nM | < 100 nM | 100 to 1000 nM | < 100 nM | < 100 nM |
| CCC(=O)N1C[C@@H](N(CC)c2nc(OC[C@@]34CCCN3C[C@H](F)C4)nc3c(F)c(-c4ccc(F)c5sc(N)c(C#N)c45)c(C(F)(F)F)cc23)C[C@@H]1COC (atropisomer, axis not shown) [Compound 648] | < 100 nM | < 100 nM | < 100 nM | 100 to 1000 nM | < 100 nM | < 100 nM |
| CCC(=O)N1C[C@@H](N(CC)c2nc(OC[C@@]34CCCN3C[C@H](F)C4)nc3c(F)c(-c4ccc(F)c5sc(N)c(C#N)c45)c(C(F)(F)F)cc23)C[C@H]1COC (atropisomer, axis not shown) [Compound 649] | 100 to 1000 nM | 100 to 1000 nM | 100 to 1000 nM | 100 to 1000 nM | < 100 nM | < 100 nM |
| CCN(c1nc(OC[C@@]23CCCN2C[C@H](F)C3)nc2c(F)c(-c3ccc(F)c4sc(N)c(C#N)c34)c(C(F)(F)F)cc12)[C@H]1C[C@@H](COC)N(C(=O)C2CC2)C1 (atropisomer, axis not shown) [Compound 650] | 100 to 1000 nM | 100 to 1000 nM | 100 to 1000 nM | 100 to 1000 nM | < 100 nM | < 100 nM |

From patent US20260042764A1, “COMPOSITIONS AND METHODS FOR INHIBITION OF KRAS” (TheRas, Inc., priority 2022, published 2026)
